3 substances from patent US8178506B2, “Oligomeric compounds and compositions for use in modulation of small non-coding RNAs” (Regulus Therapeutics Inc., priority 2003, dated 2012) can be followed below.

In the oligonucleotide strings, read from the 5' end, every base follows the letter of its sugar. An asterisk marks phosphorothioate; unmarked linkages are phosphodiester. Other units and linkages are bracketed, terminal groups are in braces. A string of capitals states the bases alone. e = 2'-O-(2-methoxyethyl) (MOE); [5mC] = 5-methylcytosine; d = 2'-deoxy (DNA)

The test system of data set [1] is T47D cells. Nature of the data set: Caspase-3 activity assay (apoptosis) in T47D cells. To be noted: T47D cells, 200 nM, 48 hours, relative to untreated control.
In data set [2] the test system is mir-143 binding sites. Nature of the data set: pGL3-mir-143 sensor luciferase assay in HeLa cells. It counts as cell-based, human. To be noted: Table 41, pGL3-mir-143 sensor, 24 hours.
The test system of data set [3] is mir-143 binding site in 3′-UTR of ERK5. Nature of the data set: pGL3-ERK5-3′UTR luciferase assays in HeLa cells. It counts as cell-based, human. To be noted: for luciferase expression: HeLa cells, 24 hours. The procedure: An expression system based on the pGL3-Control (Promega Corp., Madison Wis.) reporter vector and comprising predicted miRNA binding sites was used in transient transfections of HeLa cells with plasmids expressing oligomeric compounds mimicking miRNAs, pre-miRNAs or pri-miRNAs in order to assess the ability of these miRNA mimics to bind and regulate the expression of the luciferase reporter. The effect of increasing the copy number of the miRNA-binding site in the target was also tested by including multiple binding sites in artificial reporter constructs. It is understood that the presence of multiple miRNA-binding sites in a target can include binding sites for different miRNAs.
The following reporter plasmids were constructed by cloning the specified fragment into the XbaI site of the pGL3-control plasmid, placing the potential miRNA-binding site in the 3′-UTR of the luciferase reporter: The reporter plasmid pGL3-bulge(×3) contains three contiguous copies of the sequence ([…]; herein incorporated as SEQ ID NO: 874) which represents a sequence complementary to the mir-143 miRNA except that it is missing 2 nucleotides such that the mir-143 miRNA is presumed to adopt a bulged structure when it hybridizes to this target sequence. The pGL3-GLO1 reporter plasmid contains a DNA fragment comprising the 3′-UTR of the GLO1 sequence; this fragment was PCR-amplified using a primer beginning at nucleotide number 621 of the GLO1 sequence (GenBank Accession NM_006708.1, SEQ ID NO: 821) and the downstream primer hybridizing to the poly A tail. The pGL3-PP2A reporter plasmid contains a DNA fragment comprising the 3′-UTR of the PP2A gene; this fragment was PCR-amplified using a primer beginning at nucleotide number 921 of the PP2A sequence (GenBank Accession NM_004156.1) and the downstream primer hybridizing to the poly A tail. The reporter plasmid pGL3-ERK5-3′-UTR(×1) contains one copy of the sequence […] (herein incorporated as SEQ ID NO: 875), found in the 3′-UTR of ERK5 and predicted by Lewis, et al. to be bound by the mir-143 miRNA, and the reporter plasmid pGL3-ERK5-3′UTR(×3) has three contiguous copies of this sequence. The reporter plasmid pGL3-ERK5-3′UTR(ext) contains one copy of the sequence […] (herein incorporated as SEQ ID NO: 876), which includes an additional ten nucleotides at either end of the mir-143 binding site in 3′-UTR of ERK5 predicted by Lewis, et al. (Lewis et al., Cell, 2003, 115, 787-798). The plasmids pGL3-ERK5-cds(×1), pGL3-ERK5-cds(×2), pGL3-ERK5-cds(×3), and pGL3-ERK5-cds(×5) contain one, two, three or five contiguous copies, respectively, of the novel mir-143 binding site ([…]; herein incorporated as SEQ ID NO: 877) we identified within the coding sequence of ERK5. The unmodified pGL3-Control luciferase reporter vector was used as a negative control, and the pGL3-mir-143 sensor reporter plasmid was used as a positive control.
HeLa cells were routinely cultured and passaged as described. In some embodiments, HeLa cells were transfected with 0.05 μg of the relevant pGL3-sensor plasmid and 0.01 μg pRL-CMV plasmid. Additionally, in some embodiments, cells were treated at various dosages (11 nM, 33 nM, and 100 nM) with the following oligomeric compound mimics: 1) ds-mir-143, or 2) ds-Control as described. In accordance with methods described in Example 12, a luciferase assay was performed 24-hours after transfection. The results, shown in Tables 40 and 41, are an average of three trials. Data are presented as percent untreated control (luciferase plasmid only, not treated with oligomeric compound) luciferase expression, normalized to pRL-CMV levels.

Data set [4] relates to BJ, B16-F10, T47D, T47Dp53 and HeLa cells. Nature of the data set: Cell cycle assay (propidium iodide flow cytometry), cell line panel. The format is cell-based. To be noted: 150 nM, 72 hours (Table 29).

In the case of “328403 (antisense eA*eG*eG*e[5mC]*e[5mC]*dT*dA*dT*dT*d[5mC]*d[5mC]*dT*dG*dT*dA*eG*e[5mC]*eA*eA*eA) [compound 328403]”, the “Fold Increase over UTC (caspase activity)” value in data set [1] came to 1.0.
In the case of “ds-mir-143: double-stranded RNA of ISIS 342199 hybridized to its perfect complement ISIS 342200 (sense UGAGAUGAAGCACUGUAGCUCA; antisense UGAGCUACAGUGCUUCAUCUCA; RNA, backbone not given here)”, the luciferase expression in data set [2] (11 nM) came out at 15.0 percent untreated control; in data set [2] (33 nM), 15.0 percent untreated control; in data set [2] (100 nM) it was 11.1 percent untreated control; in data set [3] (Table 40, pGL3-ERK5-3′UTR(x1), 11 nM) it was 81.9 percent untreated control; in data set [3] (Table 40, pGL3-ERK5-3′UTR(x1), 33 nM), 84.7 percent untreated control; in data set [3] (Table 40, pGL3-ERK5-3′UTR(x1), 100 nM) it was 62.2 percent untreated control. Besides, the luciferase expression came out at 89.0 percent untreated control in data set [3] (Table 41, pGL3-ERK5-3′UTR(ext), 11 nM); 106.7 percent untreated control in data set [3] (Table 41, pGL3-ERK5-3′UTR(ext), 33 nM); 81.4 percent untreated control in data set [3] (Table 41, pGL3-ERK5-3′UTR(ext), 100 nM); 92.2 percent untreated control in data set [3] (Table 41, pGL3-ERK5-3′UTR(x1), 11 nM); 108.1 percent untreated control in data set [3] (Table 41, pGL3-ERK5-3′UTR(x1), 33 nM); 81.9 percent untreated control in data set [3] (Table 41, pGL3-ERK5-3′UTR(x1), 100 nM). Also, the luciferase expression is recorded as 51.7 percent untreated control in data set [3] (Table 41, pGL3-ERK5-3′UTR(x3), 11 nM); 51.0 percent untreated control in data set [3] (Table 41, pGL3-ERK5-3′UTR(x3), 33 nM); 28.2 percent untreated control in data set [3] (Table 41, pGL3-ERK5-3′UTR(x3), 100 nM). The “luciferase activity from pGL3-ERK5-3′UTR(×1)” value in data set [3] (HeLa, 11, 33 and 100 nM) is listed as “did not inhibit luciferase activity”. For the same substance, the “luciferase activity from pGL3-ERK5-3′UTR(×3)” value in data set [3] (HeLa, 11, 33 and 100 nM) is recorded as “inhibition of luciferase activity”.
Turning to “CTAGTGGTCCTAAACATTTCAC (chemistry not given here) [ISIS 327878, uniform 2′-MOE PS; targets mir-203]”, in data set [4], the “percentage of cells in the G2/M phase” value is given as “increased percentage of cells in the G2/M phase” and the “percentage of cells with hypodiploid DNA content (subG1)” value is given as “increased percentage of cells with hypodiploid DNA content”.
